Experiments:
Assay in all cases: Hematological cell line viability/apoptosis flow cytometry assay
Type in all cases: cell-based
GDM-1 cell line = settings: GDM-1 (AML); 120 h
Method in brief: (§1)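 384-well format; serial dilutions 0.00015–10 μM, DMSO 0.1% v/v, 5 days. Annexin V/DRAQ7 flow readout. Viability normalized to DMSO → IC50, Emax, AUC; apoptosis (early + late) vs DMSO → EC50, Ymax, AUC.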

HNT-34 cell line = settings: HNT-34 (AML), 120 h
Method in brief: as §1

HT cell line = settings: HT (DLBCL GCB); 120 h
Method in brief: as §1

KARPAS-422 cell line = settings: KARPAS-422 (DLBCL GCB); 120 h
Method in brief: as §1

Mec1 cell line = settings: Mec1 (CLL), 120 h
Method in brief: as §1

OCI-LY10 cell line = settings: OCI-LY10 (DLBCL ABC); 120 h
Method in brief: as §1

RIVA cell line = settings: RIVA (DLBCL ABC), 120 h
Method in brief: as §1

STR428 cell line = settings: STR428 (DLBCL), 120 h
Method in brief: as §1

SU-DHL-10 cell line = settings: SU-DHL-10 (DLBCL GCB); 120 h
Method in brief: as §1

SU-DHL-6 cell line = settings: SU-DHL-6 (DLBCL GCB); 120 h
Method in brief: as §1

U-2932 cell line = settings: U-2932 (DLBCL ABC); 120 h
Method in brief: as §1

WA-OSEL cell line = settings: WA-OSEL (CLL), 120 h
Method in brief: as §1

WILL-1 cell line = settings: WILL-1 (DLBCL); 120 h
Method in brief: as §1

WSU-DLCL2 cell line = settings: WSU-DLCL2 (DLBCL GCB); 120 h
Method in brief: as §1

O=C1CC[C@H](N2C(=O)c3cccc(NCc4ccc(CN5CC(N6CCOCC6)C5)cc4F)c3C2=O)C(=O)N1 [Compound 1, (S)-2-(2,6-dioxopiperidin-3-yl)-4-((2-fluoro-4-((3-morpholinoazetidin-1-yl)methyl)benzyl)amino)isoindoline-1,3-dione]
% Viable Cells AUC (GDM-1 cell line): 1455
% Viable Cells Emax (GDM-1 cell line): 388.4%
Apoptosis AUC (GDM-1 cell line): 696.9
Apoptosis Ymax (GDM-1 cell line): 265%
% Viable Cells AUC (HNT-34 cell line): 353
% Viable Cells Emax (HNT-34 cell line): 20.47%
Apoptosis AUC (HNT-34 cell line): 130.1
Apoptosis Ymax (HNT-34 cell line): 44.33%
EC50 (HNT-34 cell line): 876 nM
IC50 (HNT-34 cell line; read-out: % Viable Cells IC50): 26 nM
% Viable Cells AUC (HT cell line): 396.7
% Viable Cells Emax (HT cell line): 30.39%
Apoptosis AUC (HT cell line): 225.3
Apoptosis Ymax (HT cell line): 25.16%
% Viable Cells AUC (KARPAS-422 cell line): 19.97
% Viable Cells Emax (KARPAS-422 cell line): 0.8721%
Apoptosis AUC (KARPAS-422 cell line): 911.9
Apoptosis Ymax (KARPAS-422 cell line): 93.99%
EC50 (Mec1 cell line; Homo sapiens): 210 nM
IC50 (Mec1 cell line; Homo sapiens, read-out: % Viable Cells IC50): > 10000 nM
% Viable Cells AUC (Mec1 cell line): 866.5
% Viable Cells Emax (Mec1 cell line): 83.45%
Apoptosis AUC (Mec1 cell line): 302.4
Apoptosis Ymax (Mec1 cell line): 36.61%
% Viable Cells AUC (OCI-LY10 cell line): 125.3
% Viable Cells Emax (OCI-LY10 cell line): 10.16%
Apoptosis AUC (OCI-LY10 cell line): 188.9
Apoptosis Ymax (OCI-LY10 cell line): 22.31%
% Viable Cells AUC (RIVA cell line): 452.6
% Viable Cells Emax (RIVA cell line): 36.65%
Apoptosis AUC (RIVA cell line): 242.8
Apoptosis Ymax (RIVA cell line): 27.92%
EC50 (RIVA cell line): 17.7 nM
IC50 (RIVA cell line; read-out: % Viable Cells IC50): 114 nM
% Viable Cells AUC (STR428 cell line): 43.48
% Viable Cells Emax (STR428 cell line): 1.227%
Apoptosis AUC (STR428 cell line): 905.9
Apoptosis Ymax (STR428 cell line): 95.17%
EC50 (STR428 cell line): 102 nM
IC50 (STR428 cell line; read-out: % Viable Cells IC50): 94.7 nM
% Viable Cells AUC (SU-DHL-10 cell line): 10.36
% Viable Cells Emax (SU-DHL-10 cell line): 0.6716%
Apoptosis AUC (SU-DHL-10 cell line): 903
Apoptosis Ymax (SU-DHL-10 cell line): 92.27%
% Viable Cells AUC (SU-DHL-6 cell line): 19.94
% Viable Cells Emax (SU-DHL-6 cell line): 0.2469%
Apoptosis AUC (SU-DHL-6 cell line): 920.7
Apoptosis Ymax (SU-DHL-6 cell line): 95.92%
% Viable Cells AUC (U-2932 cell line): 163.7
% Viable Cells Emax (U-2932 cell line): 12.8%
Apoptosis AUC (U-2932 cell line): 212.8
Apoptosis Ymax (U-2932 cell line): 25.81%
% Viable Cells AUC (WA-OSEL cell line): 616.1
% Viable Cells Emax (WA-OSEL cell line): 54.42%
Apoptosis AUC (WA-OSEL cell line): 69.39
Apoptosis Ymax (WA-OSEL cell line): 7.38%
EC50 (WA-OSEL cell line): 112 nM
IC50 (WA-OSEL cell line; read-out: % Viable Cells IC50): > 10000 nM
% Viable Cells AUC (WILL-1 cell line): 233.7
% Viable Cells Emax (WILL-1 cell line): 4.216%
Apoptosis AUC (WILL-1 cell line): 549.4
Apoptosis Ymax (WILL-1 cell line): 79.51%
% Viable Cells AUC (WSU-DLCL2 cell line): 36.7
% Viable Cells Emax (WSU-DLCL2 cell line): 1.387%
Apoptosis AUC (WSU-DLCL2 cell line): 858.9
Apoptosis Ymax (WSU-DLCL2 cell line): 92.1%
